pIC50, pKi: −log10 of the molar value.
Legend:
[1] = molecular target: T1, 5-hydroxytryptamine receptor 1A (Rattus norvegicus, UniProt P19327); type: cell membranes, CHO-K1, Membrane; settings: for IC50: cho-k1; for pIC50: read-out: IC50; for pKi: read-out: Ki; as to all read-outs here: in other assays of this panel Not Active means under 50% inhibition at 10 µM
T1 sequence (P19327 whole entry): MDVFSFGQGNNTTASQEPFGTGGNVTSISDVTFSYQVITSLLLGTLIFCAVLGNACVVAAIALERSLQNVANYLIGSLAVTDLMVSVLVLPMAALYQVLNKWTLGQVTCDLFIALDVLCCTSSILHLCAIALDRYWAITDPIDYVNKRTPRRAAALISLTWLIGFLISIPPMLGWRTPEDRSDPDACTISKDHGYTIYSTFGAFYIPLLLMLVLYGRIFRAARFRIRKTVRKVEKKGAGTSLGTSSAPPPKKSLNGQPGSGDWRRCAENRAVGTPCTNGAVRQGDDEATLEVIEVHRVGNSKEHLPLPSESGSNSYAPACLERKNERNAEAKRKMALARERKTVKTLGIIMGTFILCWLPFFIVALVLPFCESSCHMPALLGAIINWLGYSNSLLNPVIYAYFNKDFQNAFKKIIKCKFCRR

Cathepsin G = molecular target: T2, Cathepsin G (Homo sapiens, UniProt P08311); type: tissue-based; settings: neutrophil;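 also: inhibition of Cathepsin G enzyme activity, tested on an AMC-conjugated peptide substrate; in other assays of this panel Not Active means under 50% inhibition at 10 µM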
T2 sequence (P08311 whole entry): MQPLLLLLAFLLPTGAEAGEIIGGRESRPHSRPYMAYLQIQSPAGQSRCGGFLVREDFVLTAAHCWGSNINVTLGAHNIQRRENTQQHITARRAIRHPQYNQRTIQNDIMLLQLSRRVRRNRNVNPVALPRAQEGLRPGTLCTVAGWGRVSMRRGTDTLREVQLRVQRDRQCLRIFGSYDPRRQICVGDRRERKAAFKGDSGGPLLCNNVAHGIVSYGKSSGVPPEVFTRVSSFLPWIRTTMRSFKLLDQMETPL

[2] = molecular target: T3, 5-hydroxytryptamine receptor 2C (Homo sapiens, UniProt P28335); test: DRUGMATRIX: Serotonin (5-Hydroxytryptamine) 5-HT2C radioligand binding (ligand: [3H] Mesulergine); type: cell membranes, CHO-K1, Membrane; settings: Not Active = under 50% inhibition at 10 µM; for IC50: cho-k1; for pIC50: read-out: IC50; for pKi: read-out: Ki
T3 sequence (P28335 whole entry): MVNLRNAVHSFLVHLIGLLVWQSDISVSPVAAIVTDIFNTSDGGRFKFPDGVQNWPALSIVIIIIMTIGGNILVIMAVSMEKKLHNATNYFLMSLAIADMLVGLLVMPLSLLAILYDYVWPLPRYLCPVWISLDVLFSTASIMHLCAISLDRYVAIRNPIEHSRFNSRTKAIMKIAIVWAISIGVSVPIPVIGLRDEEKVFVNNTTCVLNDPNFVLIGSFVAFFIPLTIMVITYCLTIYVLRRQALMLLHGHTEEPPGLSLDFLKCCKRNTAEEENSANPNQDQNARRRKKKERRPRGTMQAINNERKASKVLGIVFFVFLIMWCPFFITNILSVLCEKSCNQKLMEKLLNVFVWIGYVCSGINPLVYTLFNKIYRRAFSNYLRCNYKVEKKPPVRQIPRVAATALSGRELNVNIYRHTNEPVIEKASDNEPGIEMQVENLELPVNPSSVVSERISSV

D(3) dopamine receptor = D(3) dopamine receptor (Homo sapiens, UniProt P35462); test: DRUGMATRIX: Dopamine D3 radioligand binding (ligand: [3H] Spiperone); type: cell membranes, CHO, Membrane; settings: for IC50: cho; for pIC50: read-out: IC50; for pKi: read-out: Ki
Sequence of D(3) dopamine receptor (P35462 whole entry): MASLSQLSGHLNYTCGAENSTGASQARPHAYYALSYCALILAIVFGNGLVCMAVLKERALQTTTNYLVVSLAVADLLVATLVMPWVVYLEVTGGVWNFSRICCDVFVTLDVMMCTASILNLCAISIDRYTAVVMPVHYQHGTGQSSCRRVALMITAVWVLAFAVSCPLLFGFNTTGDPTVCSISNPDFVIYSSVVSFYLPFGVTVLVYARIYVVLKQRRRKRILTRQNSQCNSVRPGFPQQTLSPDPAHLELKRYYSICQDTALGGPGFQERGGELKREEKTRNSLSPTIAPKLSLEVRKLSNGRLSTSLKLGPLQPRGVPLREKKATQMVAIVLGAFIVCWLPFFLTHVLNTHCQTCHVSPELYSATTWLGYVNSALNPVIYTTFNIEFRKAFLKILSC

[3] = molecular target: Vascular endothelial growth factor receptor 1 (Homo sapiens, UniProt P17948); type: cell-based; settings: huvec; also: in other assays of this panel Not Active means under 50% inhibition at 10 µM
Sequence of Vascular endothelial growth factor receptor 1 (P17948 whole entry): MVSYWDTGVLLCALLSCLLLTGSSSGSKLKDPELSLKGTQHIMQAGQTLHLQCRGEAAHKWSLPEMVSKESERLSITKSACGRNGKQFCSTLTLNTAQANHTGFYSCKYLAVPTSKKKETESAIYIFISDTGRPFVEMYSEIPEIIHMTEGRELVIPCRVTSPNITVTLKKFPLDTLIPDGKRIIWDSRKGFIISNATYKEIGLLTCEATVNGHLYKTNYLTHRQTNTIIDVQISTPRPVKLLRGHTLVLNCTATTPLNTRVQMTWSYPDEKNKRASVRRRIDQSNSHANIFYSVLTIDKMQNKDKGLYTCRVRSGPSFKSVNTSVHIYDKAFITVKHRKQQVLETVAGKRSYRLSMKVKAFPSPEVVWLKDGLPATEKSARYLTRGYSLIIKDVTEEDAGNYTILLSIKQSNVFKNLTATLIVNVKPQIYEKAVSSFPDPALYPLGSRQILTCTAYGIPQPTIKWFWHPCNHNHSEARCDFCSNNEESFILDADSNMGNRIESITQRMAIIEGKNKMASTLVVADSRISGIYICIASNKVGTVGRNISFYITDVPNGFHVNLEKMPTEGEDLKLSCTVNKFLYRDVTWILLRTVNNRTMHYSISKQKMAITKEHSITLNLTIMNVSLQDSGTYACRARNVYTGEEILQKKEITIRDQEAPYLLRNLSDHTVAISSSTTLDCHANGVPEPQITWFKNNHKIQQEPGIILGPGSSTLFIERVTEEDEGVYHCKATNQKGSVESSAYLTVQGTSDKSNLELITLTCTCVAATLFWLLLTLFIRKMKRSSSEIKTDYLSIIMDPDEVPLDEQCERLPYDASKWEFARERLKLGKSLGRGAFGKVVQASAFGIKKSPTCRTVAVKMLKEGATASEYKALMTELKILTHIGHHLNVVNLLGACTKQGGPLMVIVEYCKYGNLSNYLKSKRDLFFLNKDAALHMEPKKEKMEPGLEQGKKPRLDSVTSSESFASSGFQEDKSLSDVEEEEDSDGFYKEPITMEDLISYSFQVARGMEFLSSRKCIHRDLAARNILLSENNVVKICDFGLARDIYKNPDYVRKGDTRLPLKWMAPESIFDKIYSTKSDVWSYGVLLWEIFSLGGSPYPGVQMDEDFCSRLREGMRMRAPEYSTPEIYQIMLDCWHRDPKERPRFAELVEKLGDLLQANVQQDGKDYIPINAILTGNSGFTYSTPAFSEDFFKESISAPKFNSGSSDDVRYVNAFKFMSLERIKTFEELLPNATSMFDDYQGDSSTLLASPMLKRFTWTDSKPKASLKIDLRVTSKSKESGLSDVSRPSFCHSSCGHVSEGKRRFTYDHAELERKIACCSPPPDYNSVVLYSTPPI

[4] = molecular target: T4, Angiotensin-converting enzyme (Oryctolagus cuniculus, UniProt P12822); type: tissue-based, Lung;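 also: enzymatic inhibition of angiotensin-converting enzyme measured with FAPGG as the substrate; in other assays of this panel Not Active means under 50% inhibition at 10 µM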
T4 sequence (P12822 whole entry): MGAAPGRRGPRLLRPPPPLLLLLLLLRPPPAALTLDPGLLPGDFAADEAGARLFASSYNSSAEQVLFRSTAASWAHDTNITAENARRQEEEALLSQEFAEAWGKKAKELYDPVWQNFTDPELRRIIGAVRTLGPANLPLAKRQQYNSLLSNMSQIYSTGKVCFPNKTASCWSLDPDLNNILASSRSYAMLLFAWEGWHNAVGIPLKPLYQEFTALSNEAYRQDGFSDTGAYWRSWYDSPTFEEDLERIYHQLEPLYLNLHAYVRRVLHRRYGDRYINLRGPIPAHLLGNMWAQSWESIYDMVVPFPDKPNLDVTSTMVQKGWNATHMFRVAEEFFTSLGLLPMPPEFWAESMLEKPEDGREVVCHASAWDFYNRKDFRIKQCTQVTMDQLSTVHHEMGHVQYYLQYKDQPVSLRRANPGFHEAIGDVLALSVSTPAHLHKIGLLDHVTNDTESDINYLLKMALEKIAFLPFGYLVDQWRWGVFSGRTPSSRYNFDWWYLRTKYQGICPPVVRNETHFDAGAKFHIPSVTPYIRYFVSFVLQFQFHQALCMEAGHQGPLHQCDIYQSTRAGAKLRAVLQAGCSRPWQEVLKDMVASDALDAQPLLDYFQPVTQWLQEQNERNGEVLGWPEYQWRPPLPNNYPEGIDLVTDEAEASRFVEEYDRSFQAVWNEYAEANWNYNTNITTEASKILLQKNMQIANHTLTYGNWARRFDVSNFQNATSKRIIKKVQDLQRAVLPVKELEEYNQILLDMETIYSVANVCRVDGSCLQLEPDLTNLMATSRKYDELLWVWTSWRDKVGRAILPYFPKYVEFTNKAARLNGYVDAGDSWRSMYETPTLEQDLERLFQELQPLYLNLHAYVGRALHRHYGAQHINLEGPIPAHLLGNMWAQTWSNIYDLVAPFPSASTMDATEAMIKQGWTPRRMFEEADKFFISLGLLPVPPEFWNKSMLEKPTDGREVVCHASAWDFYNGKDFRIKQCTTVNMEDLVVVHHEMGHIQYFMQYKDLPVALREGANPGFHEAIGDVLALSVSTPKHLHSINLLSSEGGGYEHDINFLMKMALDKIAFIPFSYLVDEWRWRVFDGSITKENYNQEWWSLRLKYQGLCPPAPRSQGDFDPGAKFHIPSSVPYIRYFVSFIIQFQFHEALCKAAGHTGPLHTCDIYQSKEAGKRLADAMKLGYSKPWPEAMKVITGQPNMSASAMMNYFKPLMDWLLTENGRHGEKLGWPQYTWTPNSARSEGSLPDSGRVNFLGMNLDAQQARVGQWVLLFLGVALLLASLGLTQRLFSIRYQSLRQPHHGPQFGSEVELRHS

## CC(=N)S [THIOACETAMIDE]
[1]
  IC50: Not Active
Cathepsin G
  IC50: Not Active
[2]
  IC50: Not Active
D(3) dopamine receptor
  IC50: Not Active
[3]
  IC50: Not Active
[4]
  IC50: Not Active

## O=C1C[C@@H]2OCC=C3CN4CC[C@]56c7ccccc7N1[C@H]5[C@H]2[C@H]3C[C@H]46 [STRYCHNINE]
[1]
  IC50: Not Active
Cathepsin G
  IC50: Not Active
[2]
  IC50: Not Active
D(3) dopamine receptor
  IC50: Not Active
[3]
  IC50: Not Active
[4]
  IC50: Not Active

## Nc1ccc(S(=O)(=O)NC(=O)c2ccccc2)cc1 [SULFABENZAMIDE]
[1]
  IC50: Not Active
Cathepsin G
  IC50: Not Active
[2]
  IC50: Not Active
D(3) dopamine receptor
  IC50: Not Active
[3]
  IC50: Not Active
[4]
  IC50: Not Active

## CC(=O)OCC(COC(C)=O)OC(C)=O [TRIACETIN]
[1]
  IC50: Not Active
Cathepsin G
  IC50: Not Active
[2]
  IC50: Not Active
D(3) dopamine receptor
  IC50: Not Active
[3]
  IC50: Not Active
[4]
  IC50: Not Active

## CCCCC(=O)N(Cc1ccc(-c2ccccc2-c2nnn[nH]2)cc1)[C@H](C(=O)O)C(C)C
[1]
  IC50: Not Active
Cathepsin G
  IC50: Not Active
[2]
  IC50: Not Active
D(3) dopamine receptor
  IC50: Not Active
[3]
  IC50: Not Active
[4]
  IC50: Not Active

## OCCOCCN1CCN(C2=Nc3ccccc3Sc3ccccc32)CC1 [QUETIAPINE]
Cathepsin G
  IC50: Not Active
[3]
  IC50: Not Active
[4]
  IC50: Not Active

## CC1CCC(NC(=O)N(CCCl)N=O)CC1 (stereo not given) [SEMUSTINE]
[1]
  IC50: Not Active
Cathepsin G
  IC50: Not Active
[2]
  IC50: Not Active
D(3) dopamine receptor
  IC50: Not Active
[3]
  IC50: Not Active
[4]
  IC50: Not Active

## Oc1ccc2c3c1O[C@H]1[C@@H](O)CC[C@@]4(O)[C@@H](C2)N(CC2CCC2)CC[C@]314 [NALBUPHINE]
[1]
  IC50: Not Active
Cathepsin G
  IC50: Not Active
[2]
  IC50: Not Active
D(3) dopamine receptor
  IC50: Not Active
[3]
  IC50: Not Active
[4]
  IC50: Not Active

## Clc1ccc(COC(Cn2ccnc2)c2ccc(Cl)cc2Cl)c(Cl)c1 (stereo not given) [MICONAZOLE]
[1]
  pIC50: 4.94
  pKi: 5.18
Cathepsin G
  IC50: Not Active
[2]
  pIC50: 5.27
  pKi: 5.56
D(3) dopamine receptor
  pIC50: 5.49
  pKi: 5.96
[3]
  IC50: Not Active
[4]
  IC50: Not Active

## O=C(O)CCCCC1CCSS1 (stereo not drawn) [LIPOIC ACID, ALPHA]
[1]
  IC50: Not Active
Cathepsin G
  IC50: Not Active
[2]
  IC50: Not Active
D(3) dopamine receptor
  IC50: Not Active
[3]
  IC50: Not Active
[4]
  IC50: Not Active

## CCCCCCCCNC(C)C(O)c1ccc(SC(C)C)cc1 (stereo not given) [SULOCTIDIL]
[1]
  pIC50: 6.26
  pKi: 6.51
Cathepsin G
  IC50: Not Active
[2]
  IC50: Not Active
D(3) dopamine receptor
  pIC50: 5.68
  pKi: 6.15
[3]
  IC50: Not Active
[4]
  IC50: Not Active

## COC(=O)[C@H]1[C@H]2C[C@@H]3c4[nH]c5cc(OC)ccc5c4CCN3C[C@H]2C[C@@H](OC(=O)c2cc(OC)c(OC)c(OC)c2)[C@@H]1OC [RESERPINE]
[1]
  IC50: Not Active
Cathepsin G
  IC50: Not Active
[2]
  IC50: Not Active
D(3) dopamine receptor
  IC50: Not Active
[3]
  IC50: Not Active
[4]
  IC50: Not Active

## O=c1[nH]c(=O)n(C2CCCO2)cc1F (stereo not given) [TEGAFUR]
[1]
  IC50: Not Active
Cathepsin G
  IC50: Not Active
[2]
  IC50: Not Active
D(3) dopamine receptor
  IC50: Not Active
[3]
  IC50: Not Active
[4]
  IC50: Not Active

## CC(C)NC[C@H](O)COc1cccc2ccccc12 [LEVOPROPRANOLOL]
Cathepsin G
  IC50: Not Active
D(3) dopamine receptor
  IC50: Not Active
[3]
  IC50: Not Active
[4]
  IC50: Not Active

## CN1[C@@H]2CC[C@H]1C[C@@H](OC(c1ccccc1)c1ccccc1)C2 [BENZTROPINE]
[1]
  IC50: Not Active
Cathepsin G
  IC50: Not Active
[2]
  pIC50: 7.21
  pKi: 7.49
D(3) dopamine receptor
  pIC50: 6.18
  pKi: 6.65
[3]
  IC50: Not Active
[4]
  IC50: Not Active

## C[S+]([O-])c1ccc(-c2nc(-c3ccncc3)c(-c3ccc(F)cc3)[nH]2)cc1 (stereo not given) [SB-203580]
[1]
  IC50: Not Active
Cathepsin G
  IC50: Not Active
[2]
  IC50: Not Active
D(3) dopamine receptor
  IC50: Not Active
[4]
  IC50: Not Active

## CN1CCN(C2=Nc3cc(Cl)ccc3Nc3ccccc32)CC1 [CLOZAPINE]
Cathepsin G
  IC50: Not Active
[3]
  IC50: Not Active
[4]
  IC50: Not Active

## CC(C)NC[C@@H](O)COc1cccc2ccccc12 [DEXPROPRANOLOL]
Cathepsin G
  IC50: Not Active
[2]
  IC50: Not Active
D(3) dopamine receptor
  IC50: Not Active
[3]
  IC50: Not Active
[4]
  IC50: Not Active

Reference: ChEMBL document CHEMBL1909046, “DrugMatrix in vitro pharmacology data”
